From US12427144B2, “Compounds and methods for the targeted degradation of androgen receptor” (Arvinas Operations, Inc., priority 2019, dated 2025)

Target: T1, Androgen Receptor (AR) (Homo sapiens, UniProt P10275)
T1 construct: endogenous in cells; host or cells: VCaP
T1 sequence (P10275 1-920): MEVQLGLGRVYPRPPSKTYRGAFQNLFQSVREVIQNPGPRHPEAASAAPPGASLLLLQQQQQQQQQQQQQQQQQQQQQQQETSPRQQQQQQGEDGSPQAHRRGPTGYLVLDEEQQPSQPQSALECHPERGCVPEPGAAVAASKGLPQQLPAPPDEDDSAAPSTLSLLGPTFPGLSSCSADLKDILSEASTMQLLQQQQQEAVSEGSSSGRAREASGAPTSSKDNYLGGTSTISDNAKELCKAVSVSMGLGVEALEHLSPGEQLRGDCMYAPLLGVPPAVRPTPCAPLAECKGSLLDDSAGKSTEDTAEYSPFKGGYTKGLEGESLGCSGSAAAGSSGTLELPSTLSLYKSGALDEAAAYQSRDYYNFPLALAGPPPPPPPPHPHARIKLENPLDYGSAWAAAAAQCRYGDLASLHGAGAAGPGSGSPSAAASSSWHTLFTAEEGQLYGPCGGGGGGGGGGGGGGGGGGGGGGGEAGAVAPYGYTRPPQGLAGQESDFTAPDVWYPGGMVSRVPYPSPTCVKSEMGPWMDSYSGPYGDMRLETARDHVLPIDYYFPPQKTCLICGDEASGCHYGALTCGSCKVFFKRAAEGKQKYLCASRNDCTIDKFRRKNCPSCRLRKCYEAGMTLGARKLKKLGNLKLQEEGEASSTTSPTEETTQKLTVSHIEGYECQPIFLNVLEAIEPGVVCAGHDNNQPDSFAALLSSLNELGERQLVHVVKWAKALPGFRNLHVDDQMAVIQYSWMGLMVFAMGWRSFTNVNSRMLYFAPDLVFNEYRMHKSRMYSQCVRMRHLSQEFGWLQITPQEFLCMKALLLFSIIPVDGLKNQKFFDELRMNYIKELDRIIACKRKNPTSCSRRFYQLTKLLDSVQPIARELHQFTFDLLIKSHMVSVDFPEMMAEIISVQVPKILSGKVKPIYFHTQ
Assay: AR immunofluorescence staining, high content imager, VCaP cells
Format: cell-based
Details: for DC50: AR degradation by immunofluorescence; for Dmax: maximal AR degradation
Protocol: AR Immunofluorescence Staining of Cells for the High Content Imager was performed as follows: Following treatment of the cells with compound (using the central 60 wells of a 96-well plate), media was removed by aspiration, followed by addition of 50 μL per well of 4% paraformaldehyde (PFA) in PBS supplemented with 2 mM MgCl2 and 2 mM CaCl2. Fixed cells were incubated at RT for 15 minutes. For particularly low adherence cell lines (e.g., VCaP), a 2× solution of 8% PFA was added directly to wells instead. Cells were washed once with 200 μL PBS/well. To permeabilize cells 50 μL/well of 0.1% Triton X-100 in PBS was added and incubated for 5 minutes. Cells were washed once with 200 μL PBSS/well. 100 μL/well of Licor Odyssey Blocking Buffer was added for 1 hour at 20° C. Wells were aspirated and AR antibody (1:1000 in Licor Odyssey blocking buffer; 50 μL/well; CST 5153s) was added. Plates were incubated overnight at 4° C. Plates were washed 3 times with 200 EL PBS/well. The appropriate secondary antibody was added (50 μL/well; diluted in Licor Odyssey blocking buffer) and incubated for 1 hour at RT in the dark as prepared below using Anti-rabbit FITC (1:5000; […]) and Phalloidin-Alexafluor 648 (1:500; […]). Cells were washed once with 200 μL PBS/well. 50 μL DAPI or Hoechst 33342 diluted 1:1000 in Licor Odyssey blocking buffer was added to the wells. Cells were washed 3 times with 200 μL PBS/well. The plates were covered with a clear plastic sealer and refrigerated in the dark until ready to analyze. The cells were analyzed using a Molecular Devices IXM high content imager and analyzed using Molecular Devices metaXpress software suite.

DC50 | Dmax | SMILES
< 1 nM | 50 to 70% | COc1cc(O[C@H]2C(C)(C)[C@H](NC(=O)c3ccc(N4CCOC(CN(C(C)C)[C@H]5C[C@@H](Oc6ccc(F)c(C(=O)N[C@H]7CCC(=O)NC7=O)c6)C5)C4)cc3)C2(C)C)ccc1C#N (stereo partly drawn) [Compound 62, 4-(2-{[(propan-2-yl)[(1r,3r)-3-(3-{[(3S)-2,6-dioxopiperidin-3-yl]carbamoyl}-4-fluorophenoxy)cyclobutyl]amino]methyl}morpholin-4-yl)-N-[(1r,3r)-3-(4-cyano-3-methoxyphenoxy)-2,2,4,4-tetramethylcyclobutyl]benzamide]
< 1 nM | 50 to 70% | Cc1cc(O[C@H]2C(C)(C)[C@H](NC(=O)c3ccc(N4CCC(CN5CCOCCCCOc6cc(C(=O)NC7CCC(=O)NC7=O)ccc6O[C@H]6C[C@H]5C6)CC4)cc3)C2(C)C)cc(C)c1C#N (some centres unmarked) [Compound 64, (1r,18r)-N-(2,6-dioxopiperidin-3-yl)-17-{[1-(4-{[(1r,3r)-3-(4-cyano-3,5-dimethylphenoxy)-2,2,4,4-tetramethylcyclobutyl]carbamoyl}phenyl)piperidin-4-yl]methyl}-2,9,14-trioxa-17-azatricyclo[16.1.1.0^3,8]icosa-3(8),4,6-triene-6-carboxamide]
< 1 nM | ≥ 70% | CC(C)N(CC1CCN(c2cnc(C(=O)N[C@H]3CC[C@H](Oc4ccc(C#N)c(Cl)c4)CC3)cn2)CC1)[C@H]1C[C@H](Oc2ccc(C(=O)NC3CCC(=O)NC3=O)nc2)C1 (some centres unmarked) [Compound 24, N-[4-(3-chloro-4-cyano-phenoxy)cyclohexyl]-5-[4-[[[3-[[6-[(2,6-dioxo-3-piperidyl)carbamoyl]-3-pyridyl]oxy]cyclobutyl]-isopropyl-amino]methyl]-1-piperidyl]pyrazine-2-carboxamide]
< 1 nM | ≥ 70% | COCCN(C[C@@H]1CN(c2ccc(C(=O)N[C@H]3C(C)(C)[C@H](Oc4cc(C)c(C#N)c(C)c4)C3(C)C)cc2)CCO1)[C@H]1C[C@@H](Oc2ccc(C(=O)N[C@H]3CCC(=O)NC3=O)c(F)c2)C1 [Compound 45, 4-[(2R)-2-{[(2-methoxyethyl)[(1r,3r)-3-(4-{[(3S)-2,6-dioxopiperidin-3-yl]carbamoyl}-3-fluorophenoxy)cyclobutyl]amino]methyl}morpholin-4-yl]-N-[(1r,3r)-3-(4-cyano-3,5-dimethylphenoxy)-2,2,4,4-tetramethylcyclobutyl]benzamide]
< 1 nM | ≥ 70% | COc1cc(O[C@H]2C(C)(C)[C@H](NC(=O)c3ccc(N4CCO[C@@H](CN(C(C)C)[C@H]5C[C@H](Oc6ccc(C(=O)N[C@H]7CCC(=O)NC7=O)c(F)c6)C5)C4)cc3)C2(C)C)ccc1C#N [Compound 44, 4-[(2S)-2-([isopropyl[(1R,3R)-3-(4-[[(3S)-2,6-dioxopiperidin-3-yl]carbamoyl]-3-fluorophenoxy)cyclobutyl]amino]methyl)morpholin-4-yl]-N-[(1R,3R)-3-(4-cyano-3-methoxyphenoxy)-2,2,4,4-tetramethylcyclobutyl]benzamide]

SMILES | DC50 | Dmax
COc1cc(C(=O)NC2CCC(=O)NC2=O)ccc1O[C@H]1C[C@H](N(CC2CCN(c3ccc(C(=O)N[C@H]4C(C)(C)[C@H](Oc5cc(C)c(C#N)c(C)c5)C4(C)C)cc3)CC2)C(C)C)C1 (some centres unmarked) [Compound 66, N-(2,6-dioxopiperidin-3-yl)-3-methoxy-4-[(1r,3r)-3-[(propan-2-yl)({[1-(4-{[(1r,3r)-3-(4-cyano-3,5-dimethylphenoxy)-2,2,4,4-tetramethylcyclobutyl]carbamoyl}phenyl)piperidin-4-yl]methyl})amino]cyclobutoxy]benzamide] | < 1 nM | 50 to 70%
COc1cc(O[C@H]2C(C)(C)[C@H](NC(=O)c3ccc(N4CCC(O[C@H]5C[C@H](Oc6ccc(C(=O)NC7CCC(=O)NC7=O)c(OC)c6)C5)CC4)cc3)C2(C)C)ccc1C#N (some centres unmarked) [Compound 54, N-[(1r,3r)-3-(4-cyano-3-methoxyphenoxy)-2,2,4,4-tetramethylcyclobutyl]-4-{4-[(1r,3r)-3-{4-[(2,6-dioxopiperidin-3-yl)carbamoyl]-3-methoxyphenoxy}cyclobutoxy]piperidin-1-yl}benzamide] | < 1 nM | ≥ 70%
